# Like-named read-outs stand apart in the source and are kept apart here.
# Assays:
# [1] = test system: Rhizoctonia solani (RHIZSO); assay: microbe, parasite or virus in culture; format: cell-based; settings: Rhizoctonia solani, read-out: RHIZSO in vitro Growth Inhibition
# [2] = test system: Leptosphaeria nodorum—LEPTNO; assay: Glume Blotch of Wheat, in vivo whole plant, 24 Hour Protectant; settings: for pest or weed control at 100 ppm: Leptosphaeria, read-out: LEPTNO in vivo 1 Day Protectant
# [3] = test system: Phytophthora infestans—PHYTIN; assay: whole plant or invertebrate; format: in vivo; settings: Phytophthora, in Solanum lycopersicum, 24 h, read-out: PHYTIN in vivo 1 Day Protectant
# Septoria tritici—SEPTTR = assay: Leaf Blotch of Wheat, in vivo whole plant, 24 Hour Protectant; settings: for pest or weed control at 100 ppm: Zymoseptoria tritici, 24 h, read-out: SEPTTR in vivo 1 Day Protectant
# Erysiphe graminis—ERYSGT = assay: Powdery Mildew of Wheat, in vivo whole plant, 24 Hour Protectant; settings: Erysiphe, read-out: ERYSGT in vivo 1 Day Protectant
# [4] = test system: Mycosphaerella graminicola (Septoria tritici—SEPTTR); assay: In vitro fungal growth inhibition, Mycosphaerella graminicola (SEPTTR); format: cell-based; settings: Zymoseptoria tritici, read-out: SEPTTR in vitro Growth Inhibition
# [5] = test system: Stagonospora nodorum (Leptosphaeria nodorum—LEPTNO); assay: In vitro fungal growth inhibition, Stagonospora nodorum (LEPTNO); format: cell-based; settings: Leptosphaeria, read-out: LEPTNO in vitro Growth Inhibition
# [6] = test system: Magnaporthe grisea (Pyricularia oryzae—PYRIOR); assay: microbe, parasite or virus in culture; format: cell-based; settings: Pyricularia oryzae, read-out: PYRIOR in vitro Growth Inhibition
# [7] = test system: Phytophthora infestans (PHYTIN); assay: microbe, parasite or virus in culture; format: cell-based; settings: Phytophthora infestans, read-out: PHYTIN in vitro Growth Inhibition
# Ustilago maydis (USTIMA) = assay: microbe, parasite or virus in culture; format: cell-based; settings: Mycosarcoma maydis, read-out: USTIMA in vitro Growth Inhibition
# [8] = test system: Puccinia recondita—PUCCRT; assay: Brown Rust of Wheat, in vivo whole plant, 24 Hour Protectant; settings: for pest or weed control at 100 ppm: Puccinia, read-out: PUCCRT in vivo 1 Day Protectant
# [9] = wheat plants sprayed at 100 ppm, inoculated after 24 hours, control of fungal infection vs untreated plants
# [10] = 100 ppm spray, 24 hour protectant, wheat, control of fungal infection vs untreated plants
# [11] = 100 ppm spray, wheat, 24 hour protectant, control of fungal infection vs untreated plants
# [12] = 100 ppm spray, wheat, 24 hour protectant, % control of fungal infection vs untreated plants
Structure (SMILES),inhibition at 25 ppm [1] [%],pest or weed control at 100 ppm [3] [%],inhibition at 25 ppm [6] [%],inhibition at 25 ppm [7] [%],inhibition at 25 ppm (Ustilago maydis (USTIMA)) [%],"pest or weed control at 100 ppm [2, 10] [%]",pest or weed control at 100 ppm (Erysiphe graminis—ERYSGT; [10]) [%],inhibition at 25 ppm ([4]; 25 ppm in growth medium) [%],inhibition at 25 ppm ([5]; 25 ppm in growth medium) [%],"pest or weed control at 100 ppm [8, 10] [%]",pest or weed control at 100 ppm (Septoria tritici—SEPTTR; [10]) [%],also measured
COCCC(=O)Oc1cccnc1C(=O)N[C@H]1COC(=O)[C@H](Cc2ccccc2)[C@@H](OC(=O)C(C)C)[C@H](C)OC1=O [Compound 569],< 80,25 to 74,> 80,< 80,< 80,,,,,,,"LEPTNO in vivo 1 Day Protectant [2, 9]: + +; SEPTTR in vivo 1 Day Protectant (Septoria tritici—SEPTTR; [9]): + +; pest or weed control at 100 ppm (Erysiphe graminis—ERYSGT; [9]): < 25%; inhibition at 25 ppm ([4]; 25 ppm in the growth medium): > 80%; inhibition at 25 ppm ([5]; 25 ppm in the growth medium): > 80%; PUCCRT in vivo 1 Day Protectant [8, 9]: + +"
COc1ccnc(C(=O)NC2CC(C)(C)/C=C\CC(C)(C)C2)c1O (stereo not drawn) [Compound 283],< 80,< 25,< 80,< 80,< 80,25 to 74,< 25,< 80,< 80,25 to 74,,SEPTTR in vivo 1 Day Protectant (Septoria tritici—SEPTTR; [10]): + +
COc1ccnc(C(=O)Nc2ccccc2Oc2cccc(Cl)c2)c1O [Compound 437],< 80,25 to 74,< 80,< 80,< 80,,,> 80,< 80,,,"pest or weed control at 100 ppm [2, 11]: < 25%; pest or weed control at 100 ppm (Septoria tritici—SEPTTR; [11]): < 25%; pest or weed control at 100 ppm (Erysiphe graminis—ERYSGT; [11]): < 25%; pest or weed control at 100 ppm [8, 11]: < 25%"
COc1ccnc(C(=O)N[C@H]2COC(=O)[C@H](Cc3ccccc3)[C@@H](OC(=O)C(C)C)[C@H](C)OC2=O)c1OC(=O)C=C(C)C [Compound 607],< 80,< 25,< 80,< 80,< 80,,,< 80,> 80,,,"pest or weed control at 100 ppm [2, 12]: 25 to 74%; SEPTTR in vivo 1 Day Protectant (Septoria tritici—SEPTTR; [12]): + +; pest or weed control at 100 ppm (Erysiphe graminis—ERYSGT; [12]): < 25%; PUCCRT in vivo 1 Day Protectant [8, 12]: + +"
COc1ccnc(C(=O)NC2CCC(Sc3ccccc3)CC2)c1O (stereo not drawn) [Compound 275],> 80,< 25,< 80,< 80,< 80,25 to 74,< 25,> 80,> 80,< 25,25 to 74,
COc1ccnc(C(=O)N[C@H]2CC3CC2[C@@H](COCc2cccc(C(F)(F)F)c2)C3)c1O (stereo partly drawn) [Compound 295],> 80,< 25,> 80,< 80,< 80,25 to 74,< 25,> 80,> 80,25 to 74,,SEPTTR in vivo 1 Day Protectant (Septoria tritici—SEPTTR; [10]): + +
COc1ccnc(C(=O)NC2CCCC2=O)c1O (stereo not drawn) [Compound 249],< 80,< 25,< 80,< 80,< 80,25 to 74,< 25,< 80,< 80,< 25,25 to 74,
COc1ccnc(C(=O)NC2C[C@H](C)O[C@](C)(Cc3ccccc3)C2)c1O (stereo partly drawn) [Compound 313],< 80,< 25,< 80,< 80,< 80,25 to 74,25 to 74,< 80,< 80,25 to 74,25 to 74,
O=C(Nc1ccc(Cl)cc1)c1ncccc1O [Compound 213],< 80,25 to 74,< 80,> 80,< 80,< 25,< 25,> 80,< 80,,< 25,"PUCCRT in vivo 1 Day Protectant [8, 10]: + +"
COc1ccnc(C(=O)NC(COC(=O)CC(C)OC(=O)CCc2ccccc2)C(=O)OC(C)C)c1O (stereo not drawn) [Compound 353],< 80,< 25,< 80,< 80,< 80,,,< 80,< 80,,,"pest or weed control at 100 ppm [2, 11]: < 25%; pest or weed control at 100 ppm (Septoria tritici—SEPTTR; [11]): < 25%; pest or weed control at 100 ppm (Erysiphe graminis—ERYSGT; [11]): < 25%; PUCCRT in vivo 1 Day Protectant [8, 11]: + +"
COc1ccnc(C(=O)N[C@H]2COC(=O)[C@H](Cc3ccccc3)[C@@H](OC(=O)C(C)C)[C@H](C)OC2=O)c1OC(=O)c1cnc(Cl)c(Cl)c1 [Compound 670],< 80,< 25,< 80,> 80,< 80,,,< 80,> 80,,,"LEPTNO in vivo 1 Day Protectant [2, 12]: + +; SEPTTR in vivo 1 Day Protectant (Septoria tritici—SEPTTR; [12]): + +; pest or weed control at 100 ppm (Erysiphe graminis—ERYSGT; [12]): < 25%; PUCCRT in vivo 1 Day Protectant [8, 12]: + +"
O=C(NCC1CCCCC1)c1ncccc1O [Compound 202],< 80,< 25,> 80,> 80,< 80,< 25,< 25,< 80,< 80,< 25,< 25,
COc1ccnc(C(=O)N[C@H]2COC(=O)[C@H](Cc3ccccc3)[C@@H](OC(=O)C(C)C)[C@H](C)OC2=O)c1OC(=O)CCCBr [Compound 625],< 80,< 25,< 80,< 80,< 80,,,< 80,> 80,,,"LEPTNO in vivo 1 Day Protectant [2, 12]: + +; SEPTTR in vivo 1 Day Protectant (Septoria tritici—SEPTTR; [12]): + +; pest or weed control at 100 ppm (Erysiphe graminis—ERYSGT; [12]): < 25%; PUCCRT in vivo 1 Day Protectant [8, 12]: + +"
COC(=O)C(COC(=O)CC(C)OC(=O)C(C)C)NC(=O)c1nccc(OC)c1OC(C)=O (stereo not drawn) [Compound 586],< 80,< 25,< 80,< 80,< 80,,,,,,,"pest or weed control at 100 ppm [2, 9]: 25 to 74%; pest or weed control at 100 ppm (Septoria tritici—SEPTTR; [9]): 25 to 74%; pest or weed control at 100 ppm (Erysiphe graminis—ERYSGT; [9]): < 25%; inhibition at 25 ppm ([4]; 25 ppm in the growth medium): < 80%; inhibition at 25 ppm ([5]; 25 ppm in the growth medium): < 80%; pest or weed control at 100 ppm [8, 9]: 25 to 74%"
COc1ccnc(C(=O)N[C@H]2COC(=O)[C@H](Cc3ccccc3)[C@@H](OC(=O)C3C(C)CCCC3C)[C@H](C)OC2=O)c1O (stereo partly drawn) [Compound 393],< 80,< 25,> 80,< 80,> 80,,,> 80,> 80,,,"pest or weed control at 100 ppm [2, 11]: 25 to 74%; pest or weed control at 100 ppm (Septoria tritici—SEPTTR; [11]): 25 to 74%; pest or weed control at 100 ppm (Erysiphe graminis—ERYSGT; [11]): < 25%; pest or weed control at 100 ppm [8, 11]: 25 to 74%"

# — patent publication US6706740B2, “Fungicidal heterocyclic aromatic amides and their compositions, methods of use and preparation” (Dow AgroSciences LLC, priority 1999, dated 2004)
